From patent US8148391B2 (Cephalon, Inc., priority 2006, dated 2012)
Read-outs that look alike come from different tables or passages of the source.

Experiments:
[1] = molecular target: T1, c-Met (cytoplasmic domain) (Homo sapiens, UniProt P08581); test: c-Met Kinase Assay (same methods as for ALK, with modifications); format: biochemical
T1 construct: 10 ng/mL c-Met (cytoplasmic domain, Invitrogen Corporation #PV3143); purchased Invitrogen Corporation PV3143
Procedure, shortened: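 IC50 values were fitted by variable-slope sigmoidal regression of percent inhibition against log compound concentration. Phosphorylation was read with Eu-N1 PT66 antibody after a 15 min, 37 °C reaction. The reaction was initiated with 10 ng/mL c-Met cytoplasmic domain on wells coated with 10 μg/mL PLC-γ in TBS.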

[2] = molecular target: T2, baculovirus-expressed ALK (Homo sapiens, UniProt Q9UM73); test: ALK Kinase Assay (ELISA-type, time-resolved fluorescence); format: biochemical
T2 construct: host or cells: baculovirus expression system
T2 sequence (Q9UM73 19-1620): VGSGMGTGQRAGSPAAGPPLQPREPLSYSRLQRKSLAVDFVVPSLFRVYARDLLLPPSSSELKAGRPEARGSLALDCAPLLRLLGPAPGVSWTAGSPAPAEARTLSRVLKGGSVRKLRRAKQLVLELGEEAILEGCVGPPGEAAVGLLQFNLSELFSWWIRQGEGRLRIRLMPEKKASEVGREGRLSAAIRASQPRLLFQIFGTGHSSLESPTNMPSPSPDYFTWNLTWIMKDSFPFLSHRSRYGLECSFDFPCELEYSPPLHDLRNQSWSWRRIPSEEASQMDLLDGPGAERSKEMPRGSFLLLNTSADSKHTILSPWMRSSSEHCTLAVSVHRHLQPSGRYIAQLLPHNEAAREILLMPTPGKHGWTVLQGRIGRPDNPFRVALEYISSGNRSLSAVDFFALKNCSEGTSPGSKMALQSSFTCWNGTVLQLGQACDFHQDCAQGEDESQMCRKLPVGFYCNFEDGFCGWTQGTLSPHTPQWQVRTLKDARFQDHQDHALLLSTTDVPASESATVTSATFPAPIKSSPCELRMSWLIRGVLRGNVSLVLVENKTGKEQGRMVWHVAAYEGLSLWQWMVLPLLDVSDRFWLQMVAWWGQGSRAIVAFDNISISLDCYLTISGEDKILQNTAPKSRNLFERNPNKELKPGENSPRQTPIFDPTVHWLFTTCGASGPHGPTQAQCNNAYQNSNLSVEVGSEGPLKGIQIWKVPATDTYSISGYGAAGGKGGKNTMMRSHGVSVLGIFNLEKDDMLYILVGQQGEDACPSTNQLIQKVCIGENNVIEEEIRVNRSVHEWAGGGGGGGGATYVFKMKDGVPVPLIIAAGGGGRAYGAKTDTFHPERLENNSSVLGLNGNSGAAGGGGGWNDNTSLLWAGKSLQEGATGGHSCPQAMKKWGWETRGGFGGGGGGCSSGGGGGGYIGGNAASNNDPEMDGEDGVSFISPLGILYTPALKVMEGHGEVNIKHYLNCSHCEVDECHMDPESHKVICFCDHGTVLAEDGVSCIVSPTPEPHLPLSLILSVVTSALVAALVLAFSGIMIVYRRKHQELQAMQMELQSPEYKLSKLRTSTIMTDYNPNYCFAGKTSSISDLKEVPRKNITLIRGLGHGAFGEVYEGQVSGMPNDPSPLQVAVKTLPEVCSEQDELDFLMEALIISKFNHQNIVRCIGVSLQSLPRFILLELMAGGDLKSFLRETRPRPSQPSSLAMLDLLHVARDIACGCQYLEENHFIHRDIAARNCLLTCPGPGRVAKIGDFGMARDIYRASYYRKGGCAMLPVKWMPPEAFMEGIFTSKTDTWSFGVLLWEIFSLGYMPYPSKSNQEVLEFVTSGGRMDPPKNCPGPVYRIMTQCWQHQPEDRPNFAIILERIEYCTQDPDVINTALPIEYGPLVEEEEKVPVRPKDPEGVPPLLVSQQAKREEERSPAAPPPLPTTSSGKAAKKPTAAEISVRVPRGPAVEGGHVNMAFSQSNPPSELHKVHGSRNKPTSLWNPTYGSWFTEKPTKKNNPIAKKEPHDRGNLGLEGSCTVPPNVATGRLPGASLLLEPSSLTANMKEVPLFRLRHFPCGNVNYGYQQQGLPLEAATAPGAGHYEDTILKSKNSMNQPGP
Procedure, shortened: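 Wells were coated with phospholipase C-γ at 10 μg/mL in Tris-buffered saline. Adding 30 ng/ml enzyme started the reaction, which ran at 37° C for 15 minutes before Eu-N1 PT66 antibody detection. Percent inhibition versus log10 concentration gave IC50 by variable-slope fit.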

[3] = c-Met kinase inhibition, 1 μM ATP (Km level), read-out: cMet Activity
[4] = ALK kinase inhibition, 1 μM ATP (Km level), read-out: ALK Activity
[5] = 1 μM ATP (Km level), read-out: cMet Activity (c-Met Kinase Inhibition, IC50)
[6] = 1 μM ATP (Km level), read-out: ALK Activity (ALK Kinase Inhibition, IC50)
[7] = c-Met kinase inhibition, 1 μM ATP, read-out: cMet Activity
[8] = ALK kinase inhibition, 1 μM ATP, read-out: ALK Activity
[9] = 1 μM ATP (Km level), 10 ng/mL c-Met, read-out: cMet Activity (c-Met kinase inhibition, IC50 class)
[10] = 1 μM ATP (Km level), 30 ng/ml ALK, 37° C., 15 minutes, read-out: ALK Activity (ALK kinase inhibition, IC50 class)

T1 sequence (P08581 956-1390 limits assumed): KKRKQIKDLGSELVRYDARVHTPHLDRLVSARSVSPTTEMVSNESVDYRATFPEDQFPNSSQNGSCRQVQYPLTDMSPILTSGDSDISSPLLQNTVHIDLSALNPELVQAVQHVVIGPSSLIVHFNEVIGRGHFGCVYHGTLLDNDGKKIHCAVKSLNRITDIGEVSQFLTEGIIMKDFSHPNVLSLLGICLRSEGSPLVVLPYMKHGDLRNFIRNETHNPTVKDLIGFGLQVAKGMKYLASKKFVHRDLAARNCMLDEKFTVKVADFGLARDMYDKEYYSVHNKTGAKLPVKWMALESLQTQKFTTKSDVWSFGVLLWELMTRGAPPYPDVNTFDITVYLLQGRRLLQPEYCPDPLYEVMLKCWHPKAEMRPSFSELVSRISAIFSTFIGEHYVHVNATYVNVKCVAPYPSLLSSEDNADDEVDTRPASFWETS

## CCN1CCc2ccc(Nc3ncc(Cl)c(N[C@H]4CCCC[C@H]4C(=O)NC)n3)cc2CC1 (relative stereo) [Example 200, cis-2-[5-Chloro-2-(3-ethyl-2,3,4,5-tetrahydro-1H-benzo[d]azepin-7-ylamino)-pyrimidin-4-ylamino]-cyclohexanecarboxylic acid methylamide]
[1]; [3]
  IC50: 0.1 to 1 µM
[2]; [4]
  IC50: < 0.1 µM

## Cn1ccnc1-c1ccccc1Nc1nc(Nc2ccc3c(c2)CCC(=O)CC3)ncc1Cl [Example 217, 2-{5-Chloro-4-[2-(1-methyl-1H-imidazol-2-yl)-phenylamino]-pyrimidin-2-ylamino}-5,6,8,9-tetrahydro-benzocyclohepten-7-one]
[1]; [3]
  IC50: 0.1 to 1 µM
[2]; [4]
  IC50: < 0.1 µM

## COc1cc2c(cc1Nc1ncc(Cl)c(Nc3ccc(N4CCN(C)CC4)c(C)c3)n1)CCN(CC(C)(F)F)CC2 [Example 779, 5-Chloro-N*2*-[3-(2,2-difluoro-propyl)-8-methoxy-2,3,4,5-tetrahydro-1H-benzo[d]azepin-7-yl]-N*4*-[3-methyl-4-(4-methyl-piperazin-1-yl)-phenyl]-pyrimidine-2,4-diamine]
[1]; [5]
  IC50: > 10 µM
[2]; [6]
  IC50: < 0.1 µM

## CNC(=O)c1cccc(Cl)c1Nc1nc(Nc2ccc3c(c2)CCCC(=O)N3C)ncc1Cl [Example 352, 3-Chloro-2-[5-chloro-2-(1-methyl-2-oxo-2,3,4,5-tetrahydro-1H-benzo[b]azepin-7-ylamino)-pyrimidin-4-ylamino]-N-methyl-benzamide]
[1]; [3]
  IC50: < 0.1 µM
[2]; [4]
  IC50: 1 to 10 µM

## CNC(=O)c1cccc(C)c1Nc1nc(Nc2ccc3c(c2)CCC(=O)NC3(C)C)ncc1Cl [Example 1830, 2-(5-Chloro-2-(1,1-dimethyl-3-oxo-2,3,4,5-tetrahydro-1H-benzo[c]azepin-7-ylamino)pyrimidin-4-ylamino)-N,3-dimethylbenzamide]
[1]; [7]
  IC50: < 0.1 µM
[2]; [8]
  IC50: 1 to 10 µM

## CCN1CCc2ccc(Nc3ncc(Cl)c(Nc4cccc(N5CCOCC5)c4)n3)cc2CC1 [Example 444, 5-Chloro-N*2*-(3-ethyl-2,3,4,5-tetrahydro-1H-benzo[d]azepin-7-yl)-N*4*-(3-morpholin-4-yl-phenyl)-pyrimidine-2,4-diamine]
[1]; [3]
  IC50: 1 to 10 µM
[2]; [4]
  IC50: < 0.1 µM

## COc1cc2c(cc1Nc1ncc(Cl)c(N[C@H]3[C@@H](C(N)=O)[C@@H]4C=C[C@H]3C4)n1)CCN(C[C@H](C)O)CC2 [Example 1558, (1S,2S,3R,4R)-3-{5-Chloro-2-[3-((S)-2-hydroxy-propyl)-8-methoxy-2,3,4,5-tetrahydro-1H-3-benzazepin-7-ylamino]-pyrimidin-4-ylamino}-bicyclo[2.2.1]hept-5-ene-2-carboxylic acid amide]
[1]; [7]
  IC50: > 10 µM
[2]; [8]
  IC50: < 0.1 µM

## CCN1C2CCC1c1cc(Nc3ncc(Cl)c(Nc4ccccc4NS(C)(=O)=O)n3)ccc1C2 (stereo not drawn) [Example 72, N-{2-[5-Chloro-2-(12-ethyl-12-aza-tricyclo[7.2.1.0*2,7*]dodeca-2(7),3,5-trien-4-ylamino)-pyrimidin-4-ylamino]-phenyl}-methanesulfonamide]
[1]; [3]
  IC50: 0.1 to 1 µM
[2]; [4]
  IC50: < 0.1 µM

## CCN1C(=O)CCC(C)(C)c2ccc(Nc3ncc(Cl)c(Nc4ccccc4S(=O)(=O)C(C)C)n3)cc21 [Example 1243, 8-{5-Chloro-4-[2-(propane-2-sulfonyl)-phenylamino]-pyrimidin-2-ylamino}-1-ethyl-5,5-dimethyl-1,3,4,5-tetrahydro-1-benzazepin-2-one]
[1]; [9]
  IC50: < 0.1 µM
[2]; [10]
  IC50: < 0.1 µM

## COc1ccc2c(c1Nc1ncc(Cl)c(N[C@@H]3CCCC[C@H]3NS(C)(=O)=O)n1)CCC(NCC(F)F)CC2 (single isomer, unassigned) [Example 1074]
[1]; [9]
  IC50: > 10 µM
[2]; [10]
  IC50: 0.1 to 1 µM

## CNC(=O)c1cc(OC)ccc1Nc1nc(Nc2cc3c(cc2OC)CCN(CCOC)CC3)ncc1Cl [Example 621, 2-{5-Chloro-2-[8-methoxy-3-(2-methoxy-ethyl)-2,3,4,5-tetrahydro-1H-benzo[d]azepin-7-ylamino]-pyrimidin-4-ylamino}-5-methoxy-N-methyl-benzamide]
[1]; [5]
  IC50: 1 to 10 µM
[2]; [6]
  IC50: < 0.1 µM

## COCCNC1CCc2cc(Nc3ncc(Cl)c(Nc4c(OC)ccc5c4CN(S(C)(=O)=O)CC(=O)N5)n3)c(OC)cc2CC1 (stereo not drawn) [Example 750, 6-{5-Chloro-2-[3-methoxy-7-(2-methoxy-ethylamino)-6,7,8,9-tetrahydro-5H-benzocyclohepten-2-ylamino]-pyrimidin-4-ylamino}-4-methanesulfonyl-7-methoxy-1,3,4,5-tetrahydro-benzo[e][1,4]diazepin-2-one]
[1]; [5]
  IC50: > 10 µM
[2]; [6]
  IC50: 1 to 10 µM

## CCN1C(=O)CCCc2ccc(Nc3ncc(Cl)c(Nc4ccccc4CCC#N)n3)cc21 [Example 1232, 3-{2-[5-Chloro-2-(1-ethyl-2-oxo-2,3,4,5-tetrahydro-1H-1-benzazepin-8-ylamino)-pyrimidin-4-ylamino]-phenyl}-propionitrile]
[1]; [9]
  IC50: 1 to 10 µM
[2]; [10]
  IC50: 0.1 to 1 µM

## CNC(=O)c1ccccc1Nc1nc(Nc2ccc3c(c2)COCCN3C)ncc1Cl [Example 15, 2-[5-Chloro-2-(1-methyl-1,2,3,5-tetrahydro-benzo[e][1,4]oxazepin-7-ylamino)-pyrimidin-4-ylamino]-N-methyl-benzamide]
[1]; [3]
  IC50: < 0.1 µM
[2]; [4]
  IC50: < 0.1 µM

## COc1c(Nc2ncc(Cl)c(N[C@H]3[C@@H](C(N)=O)[C@@H]4C=C[C@H]3C4)n2)ccc2c1CCC(N1CCCC(O)C1)CC2 (stereo partly drawn) [Example 909, (1S,2S,3R,4R)-3-{5-Chloro-2-[7-(3-hydroxy-piperidin-1-yl)-1-methoxy-6,7,8,9-tetrahydro-5H-benzocyclohepten-2-ylamino]-pyrimidin-4-ylamino}-bicyclo[2.2.1]hept-5-ene-2-carboxylic acid amide]
[1]; [5]
  IC50: 1 to 10 µM
[2]; [6]
  IC50: < 0.1 µM

## O=C1CCCc2ccc(Nc3ncc(Cl)c(Nc4c(F)cccc4OCCCOCc4ccccc4)n3)cc2N1 [Example 1283, 8-{4-[2-(3-Benzyloxy-propoxy)-6-fluoro-phenylamino]-5-chloro-pyrimidin-2-ylamino}-1,3,4,5-tetrahydro-1-benzazepin-2-one]
[1]; [9]
  IC50: > 10 µM
[2]; [10]
  IC50: 1 to 10 µM

## COc1cc2c(cc1Nc1ncc(Cl)c(Nc3ccc(N(C)C)cc3S(=O)(=O)N(C)C)n1)CCN(CC(=O)N(C)C)CC2 [Example 833, 2-{7-[5-Chloro-4-(4-dimethylamino-2-dimethylsulfamoyl-phenylamino)-pyrimidin-2-ylamino]-8-methoxy-1,2,4,5-tetrahydro-benzo[d]azepin-3-yl}-N,N-dimethyl-acetamide]
[1]; [5]
  IC50: > 10 µM
[2]; [6]
  IC50: < 0.1 µM

## CCCNC(=O)c1ccccc1Nc1nc(Nc2cc3c(cc2OC)CCN(CCOC)CC3)ncc1Cl [Example 1026, 2-{5-Chloro-2-[8-methoxy-3-(2-methoxy-ethyl)-2,3,4,5-tetrahydro-1H-benzo[d]azepin-7-ylamino]-pyrimidin-4-ylamino}-N-propyl-benzamide]
[1]; [9]
  IC50: > 10 µM
[2]; [10]
  IC50: < 0.1 µM

## CNC(=O)c1ccccc1Nc1nc(Nc2ccc(OC)c3c2N(C)C(=O)CCC3)ncc1Cl [Example 123, 2-[5-Chloro-2-(6-methoxy-1-methyl-2-oxo-2,3,4,5-tetrahydro-1H-benzo[b]azepin-9-ylamino)-pyrimidin-4-ylamino]-N-methyl-benzamide]
[1]; [3]
  IC50: > 10 µM
[2]; [4]
  IC50: 0.1 to 1 µM

## CN([C@@H]1CCCC[C@H]1Nc1nc(Nc2ccc3c(c2)CCC(N2CCOCC2)CC3)ncc1Cl)S(C)(=O)=O (mixture of isomers) [Example 1681, N-{(1R,2R)-2-[5-Chloro-2-(7-morpholin-4-yl-6,7,8,9-tetrahydro-5H-benzocyclohepten-2-ylamino)-pyrimidin-4-ylamino]-cyclohexyl}-N-methyl-methanesulfonamide]
[1]; [7]
  IC50: 1 to 10 µM
[2]; [8]
  IC50: < 0.1 µM

## COCCN1CCc2ccc(Nc3ncc(Cl)c(N[C@@H]4CCCC[C@H]4NS(=O)(=O)C4CC4)n3)cc2CC1 [Example 454, Cyclopropanesulfonic acid ((1R,2R)-2-{5-chloro-2-[3-(2-methoxy-ethyl)-2,3,4,5-tetrahydro-1H-benzo[d]azepin-7-ylamino]-pyrimidin-4-ylamino}-cyclohexyl)-amide]
[1]; [3]
  IC50: 1 to 10 µM
[2]; [4]
  IC50: 0.1 to 1 µM

## CS(=O)(=O)Nc1ccccc1Nc1nc(Nc2ccc3c(c2)CNC(=O)NC3)ncc1Cl [Example 225, N-{2-[5-Chloro-2-(3-oxo-2,3,4,5-tetrahydro-1H-benzo[e][1,3]diazepin-7-ylamino)-pyrimidin-4-ylamino]-phenyl}-methanesulfonamide]
[1]; [3]
  IC50: 1 to 10 µM
[2]; [4]
  IC50: < 0.1 µM

## COc1cc(N2CCOCC2)ccc1Nc1nc(Nc2cc(F)cc3c2OCCNC3=O)ncc1Cl [Example 1684, 9-[5-Chloro-4-(2-methoxy-4-morpholin-4-yl-phenylamino)-pyrimidin-2-ylamino]-7-fluoro-3,4-dihydro-2H-benzo[f][1,4]oxazepin-5-one]
[1]; [7]
  IC50: > 10 µM
[2]; [8]
  IC50: < 0.1 µM

## CCN1C(=O)CN(C(C)=O)Cc2ccc(Nc3ncc(Cl)c(Nc4ccsc4C(=O)NC)n3)cc21 [Example 1853, 3-[2-(4-Acetyl-1-ethyl-2-oxo-2,3,4,5-tetrahydro-1H-benzo[e][1,4]diazepin-8-ylamino)-5-chloro-pyrimidin-4-ylamino]-thiophene-2-carboxylic acid methylamide]
[1]; [7]
  IC50: < 0.1 µM
[2]; [8]
  IC50: 1 to 10 µM
